According to patent US20110217715A1, “GENE EXPRESSION IN DUCHENNE MUSCULAR DYSTROPHY” (CHILDREN'S HOSPITAL MEDICAL CENTER, priority 2008, published 2011):

System: mRNA expression in peripheral blood of individuals with DMD
Assay: Whole-blood gene expression microarray: DMD administered deflazacort vs DMD administered prednisone
Format: in vivo, human
Settings: deflazacort vs. prednisone
Protocol: Fifteen ml of blood was collected from each individual into 6 PAXgene® Vacutainer® tubes (PreAnalytiX, Germany) by antecubital fossa venipuncture. PAXgene® tubes contain a proprietary reagent that immediately stabilizes RNA, thus reducing RNA degradation and minimizing gene expression changes following phlebotomy. The tubes were then inverted 20 times, then remained undisturbed for 2 h at room temperature (about 19° C. to about 22° C.), and then stored at -70° C. until processed. Total RNA was isolated using the Paxgene® blood RNA kit (PreAnalytiX, Germany) according to the manufacturers instructions. The RNA isolated is from all cells in whole blood. Typical yields of total RNA isolated from about 7.5 ml of human whole blood were between 10 μg RNA and 40 μg RNA. RNA quality and purity was analyzed by spectrophotometry using the Nanodrop ND-1000, and RNA integrity was analyzed using the Agilent 2100 Bioanalyzer. […] Sample labeling, hybridization to chips, and image scanning were performed using standard Affymetrix protocols. For each whole blood sample from control individuals and individuals with DMD, total RNA was labeled using the One-Cycle Target Labeling protocol and hybridized to the arrays. […] Double-stranded cDNA synthesis, biotin-labeled cRNA synthesis, and cRNA fragmentation were performed according to the Affymetrix GeneChip Eukaryotic Expression Analysis protocol. The labeled, fragmented cRNA (15 μg) was hybridized at 45° C. overnight. After hybridization, the array was washed and stained. The arrays were scanned with an argon-ion laser at λ=570 nm, with a resolution of 3 μm/pixel (Affymetrix, Inc.). After scanning the array, the raw probe level values for each probe were saved in Affymetrix.cel files. […] Statistical analyses, including t-test analyses, unsupervised hierarchical clustering, and principal component analyses were conducted using Genespring 7.2 software ([…]® 7, Silicon Genetics, Redwood City Calif.). […] Corrections for multiple comparisons used a Benjamini-Hochberg False Discovery Rate (FDR) of 0.05, disclosed in Tang et al., J Cereb Blood Flow Metab 26 (2006) 1089, which is expressly incorporated by reference herein in its entirety. […] Sample processing and array hybridization, probe-level data analysis, and statistical analysis were identical to Example 1.

## CC(=O)OCC(=O)[C@@]12N=C(C)O[C@@H]1C[C@H]1[C@@H]3CCC4=CC(=O)C=C[C@]4(C)[C@H]3[C@@H](O)C[C@@]12C [deflazacort]
AV700030, Nucleic Acid No. 2063
  p-value: 0.0254
AV722693, Nucleic Acid No. 1994
  p-value: 0.000689
AW070431, Nucleic Acid No. 2113
  p-value: 0.0198
AW081561, Nucleic Acid No. 2012
  p-value (t-test, deflazacort vs. prednisone): 0.0484
AW135013, Nucleic Acid No. 2109
  p-value: 0.0166
AW504458, Nucleic Acid No. 2032
  p-value (t-test, deflazacort vs. prednisone): 0.0109
AW590838, Nucleic Acid No. 2082
  p-value (t-test, deflazacort vs prednisone): 0.0481
AW978350, Nucleic Acid No. 2027
  p-value (t-test, deflazacort vs. prednisone): 0.0388
BC001152, Nucleic Acid No. 2025
  p-value: 0.0219
BC003542, Nucleic Acid No. 2048
  p-value (t-test, deflazacort vs. prednisone): 0.00709
BC006230, Nucleic Acid No. 2123
  p-value: 0.0131
BC006454, Nucleic Acid No. 1650
  p-value: 0.0101
BC012090, Nucleic Acid No. 2043
  p-value (t-test, deflazacort vs. prednisone): 0.0289
BC017896, Nucleic Acid No. 487
  p-value: 0.0133
BC025237, Nucleic Acid No. 2047
  p-value (t-test, deflazacort vs. prednisone): 0.0274
BC039454, Nucleic Acid No. 2011
  p-value (t-test, deflazacort vs. prednisone): 0.0311
BC042832, Nucleic Acid No. 2103
  p-value: 0.0214
BC043187, Nucleic Acid No. 2073
  p-value (t-test, deflazacort vs prednisone): 0.0446
BE207758, Nucleic Acid No. 1913
  p-value: 0.00136
BE348688, Nucleic Acid No. 1904
  p-value: 0.0249
BE439987, Nucleic Acid No. 1711
  p-value: 0.0106
BE465380, Nucleic Acid No. 1911
  p-value: 0.0346
BE550881, Nucleic Acid No. 2102
  p-value: 0.0423
BE563442, Nucleic Acid No. 2062
  p-value (t-test, deflazacort vs. prednisone): 0.00559
BE727883, Nucleic Acid No. 2120
  p-value: 0.0383
BE880245, Nucleic Acid No. 2033
  p-value (t-test, deflazacort vs. prednisone): 0.00733
BE964989, Nucleic Acid No. 2085
  p-value (t-test, deflazacort vs prednisone): 0.0484
BF338947, Nucleic Acid No. 2056
  p-value (t-test, deflazacort vs. prednisone): 0.0148
BF477544, Nucleic Acid No. 1895
  p-value: 0.0499
BF514079, Nucleic Acid No. 1363
  p-value (t-test, deflazacort vs prednisone): 0.0432
BF575213, Nucleic Acid No. 2122
  p-value: 0.00608
BF694956, Nucleic Acid No. 2041
  p-value (t-test, deflazacort vs. prednisone): 0.0262
BG029530, Nucleic Acid No. 2074
  p-value (t-test, deflazacort vs prednisone): 0.000753
BG249565, Nucleic Acid No. 2087
  p-value (t-test, deflazacort vs prednisone): 0.00518
D87291, Nucleic Acid No. 2077
  p-value: 0.0322
H12280, Nucleic Acid No. 2098
  p-value: 0.038
L18865, Nucleic Acid No. 2114
  p-value: 0.034
M15330, Nucleic Acid No. 2060
  p-value (t-test, deflazacort vs. prednisone): 0.0137
M35999, Nucleic Acid No. 2071
  p-value (t-test, deflazacort vs prednisone): 0.014
M60626, Nucleic Acid No. 2020
  p-value (t-test, deflazacort vs. prednisone): 0.0333
N36408, Nucleic Acid No. 2019
  p-value: 0.0384
N59653, Nucleic Acid No. 1900
  p-value: 0.044
N66633, Nucleic Acid No. 2090
  p-value (t-test, deflazacort vs prednisone): 0.0434
NM_000404, Nucleic Acid No. 2029
  p-value (t-test, deflazacort vs. prednisone): 0.000522
NM_000419, Nucleic Acid No. 2070
  p-value (t-test, deflazacort vs prednisone): 0.0421
NM_000484, Nucleic Acid No. 1261
  p-value: 0.00856
NM_000565, Nucleic Acid No. 2064
  p-value: 0.0489
NM_000576, Nucleic Acid No. 2059
  p-value (t-test, deflazacort vs. prednisone): 0.00127
NM_001109, Nucleic Acid No. 1899
  p-value: 0.0468
NM_001154, Nucleic Acid No. 1902
  p-value: 0.0116
NM_001456, Nucleic Acid No. 2015
  p-value (t-test, deflazacort vs. prednisone): 0.0172
NM_001553, Nucleic Acid No. 2057
  p-value (t-test, deflazacort vs. prednisone): 0.0297
NM_001557, Nucleic Acid No. 2065
  p-value (t-test, deflazacort vs. prednisone): 0.0421
NM_001637, Nucleic Acid No. 1903
  p-value: 0.0269
NM_001659, Nucleic Acid No. 1908
  p-value: 0.00749
NM_001690, Nucleic Acid No. 1917
  p-value: 0.021
NM_002068, Nucleic Acid No. 2030
  p-value (t-test, deflazacort vs. prednisone): 0.00544
NM_002087, Nucleic Acid No. 2038
  p-value (t-test, deflazacort vs. prednisone): 0.0294
NM_002110, Nucleic Acid No. 2040
  p-value (t-test, deflazacort vs. prednisone): 0.0352
NM_002155, Nucleic Acid No. 2049
  p-value (t-test, deflazacort vs. prednisone): 0.0206
NM_002199, Nucleic Acid No. 2068
  p-value (t-test, deflazacort vs prednisone): 0.0118
NM_002229, Nucleic Acid No. 2076
  p-value (t-test, deflazacort vs prednisone): 0.0299
NM_003644, Nucleic Acid No. 2023
  p-value: 0.00498
NM_003879, Nucleic Acid No. 1948
  p-value: 0.0159
NM_004041, Nucleic Acid No. 1914
  p-value: 0.0324
NM_004517, Nucleic Acid No. 2066
  p-value (t-test, deflazacort vs. prednisone): 0.0161
NM_004735, Nucleic Acid No. 2106
  p-value: 0.0293
